Tests used:
[1] = system: VM21 melanoma cells; test: MTT colorimetric assay, overall cell growth, VM21; assay type: cell-based, human; details: Homo sapiens; MTT, 72 hours of incubation; read-out: In Vitro IC50 Growth Inhibitory Values, VM21
From the text: (§1) The amount of formazan obtained at the end of the experiment, measured by means of a spectrophotometer, is directly proportional to the number of living cells. Optical density determination thus enabled a quantitative measurement of the effect of the investigated compounds as compared to the control condition (untreated cells) and/or to other reference compounds. Eleven human cancer cell lines and one mouse melanoma cell-line (B16F10) described in Table 2 were used in the following MTT tests. These cancer cell lines cover seven histological cancer types including prostate (PC3), glioma (Hs683, T98G, U373, melanoma (VM21, VM28), non-small-cell-lung (A549), breast (MCF-7), colon (LoVo) and oesophageal (OE21, OE33) cancers. […] Each cell line was seeded in its appropriate culture medium. The detailed experimental procedure was the following: after a 24-hour period of incubation at 37° C., the culture medium was replaced by 100 μl of fresh medium in which the tested compound was previously dissolved, at the following molar concentrations: 10^-8 […] and 10^-4 M. Each experiment was performed in sestuplicates (6 times). After 72 hours of incubation at 37° C. with (experimental conditions) or without (control condition) the compound to be tested, the medium was replaced by 100 μl MTT dissolved in RPMI (1640 without phenol red) at a concentration of 0.5 or 1 mg/ml. The micro-wells were subsequently incubated during 3 hours and a half at 37° C. and centrifuged at 1300 rpm during 10 minutes. MTT was removed and formazan crystals formed were dissolved in 100 μl DMSO. The micro-wells were shaken for 5 minutes and read on a spectrophotometer at wavelengths of 570 nm (maximal formazan absorbance). For each experimental condition, the mean optical density was calculated, allowing the determination of the percentage of remaining living cells in comparison to the control. […] The origin of all the cell lines we used, along with their biological characteristics, and the validation procedures of the MTT colorimetric assay as employed here are fully detailed in Van Quaquebeke et al., 2005, J Med Chem 48:849-856; […]

[2] = system: VM48 melanoma cells; test: MTT colorimetric assay, overall cell growth, VM48; assay type: cell-based, human; details: Homo sapiens; MTT, 72 hours of incubation; read-out: In Vitro IC50 Growth Inhibitory Values, VM48
[3] = system: Eleven human cancer cell lines; test: MTT colorimetric assay, across the eleven human cancer cell lines; assay type: cell-based; details: mean ± SEM over the 11 human cancer cell lines, MTT, 72 hours; read-out: In Vitro IC50 Growth Inhibitory Values, m ± SEM
From the text: as §1

[4] = system: U373-MG glioma cell line; test: Cellular imaging (quantitative videomicroscopy), global growth ratio, U373; assay type: cell-based; details: Homo sapiens, 50 μM, 72 h, read-out: Global Grow Ratio Treated/Ct (GGR T/Ct) determined by Video Quantitative microscopy, U373
From the text: (§2) As the MTT test is based on the mitochondria functions, we also investigated the effects of the di- and tri-vanilloyl derivatives according to the invention on cell proliferation, migration and morphology by means of a cellular imaging approach (Debeir et al., Cytometry 60:29-40, 2004; Debeir et al., IEEE Trans Med Imaging 24:697-711, 2005) either in the human U373-MG glioma cell line, which is apoptosis-resistant but autophagy-sensitive (Lefranc F et al., Neurosurgery 2008) and in the human A549 non-small-cell-lung cancer cell line, which is apoptosis-resistant and autophagy-resistant (Mijatovic T et al., Neoplasia 2006, May; 8(5):402-12).
(§3) Investigations have also been performed in human normal fibroblasts (WS1 and WI38—see Tables 4 and 5). Cellular imaging relied on the use of computer-assisted phase-contrast microscopy making possible to film the behaviour of living cells in culture dishes for several days.
(§4) Cells were seeded in a 25-cm^2 flask at a low density, treated or not with the vanilloyl-esters invention (at a concentration of 50 μM) and filmed thereafter for a period of 72 h. The experiment was conducted in quadruplicates (in duplicates for DLT-95 compounds).
(§5) The behaviour of the cells, in terms of morphology, growth and death were thus investigated. The effect on the overall growth was measured by counting the number of cells on the first (0 h) and the last image (72 h) of each film. The global growth ratio (GGR) was then deduced by dividing the number of cells on the last image by the number of cells on the first image. The ratio GGRtreated cells/GGRcontrol cells, was further calculated thereby obtaining a value that describes the effect of compounds of the present invention on the overall cell growth. The methodology is fully described and validated in Debeir et al., 2008, Exp Cell Res 314:2985-2998 and Mathieu et al., 2009, J Cell Mol Med, Feb. 20, 2009.
(§6) Illustrative pictures (time=0 h and 72 h) of glioblastoma and normal fibroblast cell line left untreated or treated with poly-vanillic compounds according to the invention (50 μM) are provided in FIG. 1 (U373 glioblastoma) and FIG. 2 (normal fibroblasts). The GGR parameter analyses confirmed the marked impairment of cell growth in both cancer cell lines of the poly-vanillic compounds according to the invention (Table 5).

[5] = system: A549 non-small-cell-lung cancer cell line; test: Cellular imaging (quantitative videomicroscopy), global growth ratio, A549; assay type: cell-based; details: Homo sapiens, 72 h, read-out: Global Grow Ratio Treated/Ct (GGR T/Ct) determined by Video Quantitative microscopy, A549
From the text: as §2, §3, §4, §5, §6

[6] = system: cancer cells versus normal fibroblasts; test: Anti-proliferative, anti-migratory and anti-kinase effects, cancer cells versus normal fibroblasts; assay type: cell-based, human; details: anti-proliferative
From the text: The compounds of the invention were subsequently evaluated for their 1) anti-proliferative effect (by means of the colorimetric MTT assay), 2) pro-autophagic and pro-apoptotic effect (by means of flow cytometry analyses), and 3) anti-migratory effect (by means of quantitative videomicroscopy), in the following human cancer cell-lines: a) U373, T98G and Hs683 glioblastoma cells, b) VM21 and VM48 melanoma cells, c) PC-3 prostate cancer cells, d) MCF-7 breast cancer cells, e) LoVo colon cancer cells, f) OE21 oesophageal cancer cells, and g) A549 NSCLC cancer cells, as well as in human WS1 and WI38 normal fibroblasts (i.e. non-cancer cells).
The best current hits, DLT12 and DLT4, display anti-proliferative, anti-migratory effects and anti-kinase effects which are ˜10 times more pronounced in cancer cells than in normal fibroblasts. […] FIG. 1 illustrates the data obtained with respect to the human U373 glioblastoma model, while FIG. 2 illustrates the data obtained in human normal fibroblasts. […] DLT-95 and its derivatives DLT-95-F and DLT-95-Cl were also shown to have a significant effect on the proliferation 7 different human cancer cell-lines.

[7] = system: U373 glioblastoma cells; test: MTT colorimetric assay, overall cell growth, U373; assay type: cell-based, human; details: Homo sapiens, U373 MG, 72 hours of incubation, read-out: In Vitro IC50 Growth Inhibitory Values, U373
From the text: as §1

[8] = system: Hs683 glioma cells; test: MTT colorimetric assay, overall cell growth, Hs683; assay type: cell-based, human; details: Homo sapiens, Hs 683, 72 hours of incubation, read-out: In Vitro IC50 Growth Inhibitory Values, Hs683
From the text: as §1

[9] = system: A549 non-small-cell-lung cancer cells; test: MTT colorimetric assay, overall cell growth, A549; assay type: cell-based, human; details: Homo sapiens, A549, 72 hours of incubation, read-out: In Vitro IC50 Growth Inhibitory Values, A549
From the text: as §1

[10] = system: PC-3 prostate cancer cells; test: MTT colorimetric assay, overall cell growth, PC-3; assay type: cell-based, human; details: Homo sapiens, 72 hours of incubation, read-out: In Vitro IC50 Growth Inhibitory Values, PC-3
From the text: as §1

[11] = system: MCF-7 breast cancer cells; test: MTT colorimetric assay, overall cell growth, MCF-7; assay type: cell-based, human; details: Homo sapiens, MCF7, 72 hours of incubation, read-out: In Vitro IC50 Growth Inhibitory Values, MCF-7
From the text: as §1

[12] = system: LoVo colon cancer cells; test: MTT colorimetric assay, overall cell growth, LoVo; assay type: cell-based, human; details: Homo sapiens, LoVo, 72 hours of incubation, read-out: In Vitro IC50 Growth Inhibitory Values, LoVo
From the text: as §1

[13] = system: T98G glioma cells; test: MTT colorimetric assay, overall cell growth, T98G; assay type: cell-based, human; details: Homo sapiens, T98G, 72 hours of incubation, read-out: In Vitro IC50 Growth Inhibitory Values, T98G
From the text: as §1

[14] = system: OE21 oesophageal cancer cells; test: MTT colorimetric assay, overall cell growth, OE21; assay type: cell-based, human; details: Homo sapiens, OE21, 72 hours of incubation, read-out: In Vitro IC50 Growth Inhibitory Values, OE21
From the text: as §1

[15] = system: OE33 oesophageal cancer cells; test: MTT colorimetric assay, overall cell growth, OE33; assay type: cell-based, human; details: Homo sapiens, OE33, 72 hours of incubation, read-out: In Vitro IC50 Growth Inhibitory Values, OE33
From the text: as §1

[16] = system: B16F10 melanoma cell-line; test: MTT colorimetric assay, overall cell growth, B16F10; assay type: cell-based, mouse; details: Mus musculus, B16-F10, 72 hours of incubation, read-out: In Vitro IC50 Growth Inhibitory Values, B16F10
From the text: as §1

| SMILES | IC50 [1] [µM] | IC50 [2] [µM] | IC50 [3] [µM] | activity at 50 µM [4] [%] | activity at 50 µM [5] [%] | effects more pronounced in cancer cells than in normal fibroblasts [6] [times] | IC50 [7] [µM] | IC50 [8] [µM] | IC50 [9] [µM] | IC50 [10] [µM] | IC50 [11] [µM] | IC50 [12] [µM] | IC50 [13] [µM] | IC50 [14] [µM] | IC50 [15] [µM] | IC50 [16] [µM] |
| --- | --- | --- | --- | --- | --- | --- | --- | --- | --- | --- | --- | --- | --- | --- | --- | --- |
| COc1cc(C(=O)OCCCCCCCOC(=O)c2ccc(O)c(OC)c2)ccc1O [DLT12, Heptane-1,7-diyl bis-(4-hydroxy-3-methoxybenzoate)] | 32 | 38 | 46 | 20 | 20 | ~10 | – | – | – | – | – | – | – | – | – | – |
| COc1cc(C(=O)OC2CCCC[C@@H]2OC(=O)c2ccc(O)c(OC)c2)ccc1O (stereo partly drawn) [DLT7, S,S-trans-cyclohexane-1,2-diyl bis-(4-hydroxy-3-methoxybenzoate)] | 35 | 36 | 47 ± 4 | 20 | 20 | – | 20 | 57 | 43 | 59 | 47 | 44 | 70 | 41 | 66 | 49 |
| COc1cc(C(=O)O[C@@H]2CCCC[C@H]2OC(=O)c2ccc(O)c(OC)c2)ccc1O [DLT8, R,R-trans-cyclohexane-1,2-diyl bis-(4-hydroxy-3-methoxybenzoate)] | 77 | 72 | > 100 | 50 | 50 | – | 53 | > 100 | 76 | 77 | 75 | 64 | > 100 | 45 | 77 | 59 |
| COc1cc(C(=O)O[C@H]2CCCC[C@H]2OC(=O)c2ccc(O)c(OC)c2)ccc1O [DLT9, cis-cyclohexane-1,2-diyl bis-(4-hydroxy-3-methoxybenzoate)] | 44 | 57 | 48 ± 3 | 20 | 20 | – | 43 | 49 | – | 35 | – | – | 76 | – | – | – |
